{"source": "patent US20250032460A1", "about": "“METHODS OF TREATING NEUROLOGICAL DISORDERS” (MapLight Therapeutics, Inc., priority 2021, published 2025)", "key": {"salivation": {"system": "salivation", "assay": "Single ascending dose study: salivation (pharmacodynamics)", "type": "in vivo, healthy adult volunteers", "conditions": "Group 1, 1-40 mg Compound 1 (FIG. 1)", "procedure": "MTD was established at the dose which produced mild to moderate cholinergic adverse effects. Cholinergic effects were monitored for each dose, including pupillometry and salivation.\nGroup 2 evaluated tolerability of Compound 1 at Group 1 MTD with or without fesoterodine fumarate co-administration. Subjects received 8 mg of fesoterodine fumarate tablet or matched placebo tablet 4 hours prior to administration of 40 mg of Compound 1."}, "[1]": {"assay": "Post-procedure plasma exposure (salivation study)", "type": "in vivo, Sprague Dawley rats", "conditions": "male, Sprague Dawley, rat, in vivo, 1.5 mg/kg, Plasma Concentration 1-Hour Post-procedure (mean value), Compound 1", "procedure": "An in vivo primary pharmacology study evaluating the fesoterodine fumarate dose-response antagonistic effect on Compound 1 induced salivation in anaesthetized male Sprague Dawley rats was conducted. […] Intravenous fesoterodine doses were administered at […]. Fesoterodine was dosed 10 minutes prior to dosage of Compound 1. All animals were normal with no observed abnormality detected in clinical signs or behavior. Salivation was measured by using oral dry swab in anesthetized rats with the calculated difference between the dry swab weight and the wet swab weight indicating the weight of saliva produced. Samples were collected post-dosing for one hour at 10-minute intervals.\nAt the end of the study period, plasma samples were collected to measure exposure of Compound 1, fesoterodine fumarate, and fesoterodine active metabolite 5-hydroxymethyl tolterodine (5-HMT), also referred to as desfesoterodine, is summarized in Table 2."}, "[2]": {"assay": "Plasma concentrations during 7-day oral dosing in beagle dogs", "type": "in vivo", "conditions": "male, beagle, dog, in vivo, po, 1.5 mg/kg/day"}, "[3]": {"system": "Amphetamine-Induced Hyperlocomotion", "assay": "Compound 1 effect on amphetamine-induced hyperlocomotion (open field)", "type": "in vivo, mice", "conditions": "for average (mean) centimeters traveled over 30 minutes: open field, vehicle cohort 7500 cm", "procedure": "The hyperdopaminergic state underlying LID was modeled in naïve male wild-type c57/B16 mice by administration of d-amphetamine, a drug which rapidly elevates synaptic dopamine levels.\nA single dose of 3 mg/kg of intraperitoneal (IP) d-amphetamine was administered to 32 male wild-type c57/B16 mice at approximately 8-weeks of age. Subsequently, the animals were subdivided into 3 groups and co-administered either a single dose of intraperitoneal vehicle only, Compound 1 at 0.3 mg/kg, or Compound 1 at 1 mg/kg. The locomotor behavior of the animals in an open field chamber (44 cm×44 cm×20 cm dimension) was monitored using a video tracking system (Noldus EthoVision v15). Over 30 minutes, the average (mean) centimeters traveled (+standard deviation) identified were: • 7500 cm (±314.9) in vehicle cohort • 5141 cm (±805.6) in the Compound 1 0.3 mg/kg cohort ([…] one-way ANOVA followed by Tukey's multiple comparison) • 2008 cm (±406.2) in the Compound 1 1.0 mg/kg cohort (p <0.001)"}, "[4]": {"assay": "Clinical observations during 7-day oral dosing in beagle dogs", "conditions": "Group 1: Compound 1 1.5 mg/kg/day PO, individual dog, 1.5 mg/kg/day"}, "[5]": {"conditions": "Plasma concentration of Compound 1, Mean"}}, "note": "“Also recorded” adds a separate entry of the source.", "data": [{"smiles": "Cc1noc([C@@]23CNC[C@@H]2C3)n1", "note": "[Compound 1, 1-(3-methyl-[1,2,4]oxadiazol-5-yl)-(1R,5R)-3-aza-bicyclo[3.1.0]hexane]", "values": [{"measurement": "change in salivation with dose", "setting": "salivation", "value": "increase in salivation was observed with increasing dose"}, {"measurement": "concentration at 1 h", "setting": "[1]", "value": 608, "unit": "ng/mL"}, {"measurement": "Plasma concentration of Compound 1, Mean", "setting": "[2]; 1 h", "value": 387, "unit": "ng/mL"}, {"measurement": "Plasma concentration of Compound 1, Mean", "setting": "[2]; 2 h", "value": 470.6, "unit": "ng/mL"}, {"measurement": "Plasma concentration of Compound 1, Mean", "setting": "[2]; 4 h", "value": 99.48, "unit": "ng/mL"}, {"measurement": "Plasma concentration of Compound 1, Mean", "setting": "[2]; 8 h", "value": 17.098, "unit": "ng/mL"}, {"measurement": "concentration at 1 h", "setting": "[2]; [5]", "value": 378, "unit": "ng/mL"}, {"measurement": "concentration at 2 h", "setting": "[2]; [5]", "value": 288, "unit": "ng/mL"}, {"measurement": "concentration at 4 h", "setting": "[2]; [5]", "value": 98.6, "unit": "ng/mL"}, {"measurement": "concentration at 8 h", "setting": "[2]; [5]", "value": 14.7, "unit": "ng/mL"}, {"measurement": "effect on hyperdopaminergic-mediated motor behavior", "setting": "[3]; 0.3 and 1 mg/kg IP, d-amphetamine-treated mice", "value": "reverses hyperdopaminergic-mediated motor behavior in a dose-dependent manner"}, {"measurement": "average (mean) centimeters traveled over 30 minutes", "setting": "[3]; Compound 1 0.3 mg/kg IP co-administered with d-amphetamine 3 mg/kg IP, p<0.5", "value": 5141, "unit": "cm"}, {"measurement": "average (mean) centimeters traveled over 30 minutes", "setting": "[3]; Compound 1 1.0 mg/kg IP co-administered with d-amphetamine 3 mg/kg IP, p <0.001", "value": 2008, "unit": "cm"}, {"measurement": "Clinical Observation", "setting": "[4]; day 1", "value": "For D1005, ptyalism was found 1 hr 20 min after dosing on day 1; also recorded: For D1001, soft feces were found 1 hr 45 min after dosing on day 1; also recorded: For D1005, about 4 mL white foamy mucoid vomitus was found 40 min; also recorded: For D1005, soft feces was found 1 hr after dosing on day 1; also recorded: For D1005, about 8 mL yellow foamy mucoid vomitus was found 1 hr"}, {"measurement": "Clinical Observation", "setting": "[4]; day 3", "value": "For D1005, 20 mL chyme was found 45 min after dosing on day 3; also recorded: For D1005, soft feces was found 80 min after dosing on day 3; also recorded: For D1005, 20 mL liquid feces was found 3.5 hr after dosing on day 3; also recorded: For D1001, ptyalism was found 2 hr after dosing on day 3. 8 hr recover; also recorded: For D1001, 20 mL chyme and ptyalism were found 3.5 hr after dosing; also recorded: For D1002, 10 mL chyme was found 55 min after dosing on day 3; also recorded: For D1002, 10 mL liquid feces and ptyalism were found 80 min after; also recorded: For D1002, ptyalism was found 2 hr after dosing on day 3. 8 hr recover; also recorded: For D1003, ptyalism was found 2 hr after dosing on day 3. 8 hr recover; also recorded: For D1003, 10 mL chyme, 5 mL liquid feces and ptyalism were found; also recorded: For D1003, 10 mL liquid feces and ptyalism were found 4 hr after; also recorded: For D1004, 15 mL chyme and soft feces were found 55 min after dosing; also recorded: For D1004, 2 mL liquid feces and ptyalism were found 80 min after; also recorded: For D1004, 20 mL chyme was found 90 min after dosing on day 3; also recorded: For D1004, ptyalism was found 2 hr after dosing on day 3. 8 hr recover; also recorded: For D1001, 10 mL chyme was found 55 min after dosing on day 3"}, {"measurement": "Clinical Observation", "setting": "[4]; day 4", "value": "For D1005, 15 mL chyme was found 40 min after dosing on day 4; also recorded: For D1005, 10 mL chyme and 10 mL liquid feces were found 2 hr after; also recorded: For D1001, 15 mL chyme was found 2 hr after dosing on day 4; also recorded: For D1001, ptyalism and 15 mL liquid feces were found 3 hr after; also recorded: For D1002, 15 mL chyme and 10 mL liquid feces were found 2 hr after; also recorded: For D1002, ptyalism and 5 mL liquid feces were found 3 hr after dosing; also recorded: For D1003, soft feces was found 3 hr after dosing on day 4; also recorded: For D1004, ptyalism was found 2 hr after dosing on day 4; also recorded: For D1004, 8 mL liquid feces was found 3 hr after dosing on day 4; also recorded: For D1004, soft feces was found 220 min after dosing on day 4"}, {"measurement": "Clinical Observation", "setting": "[4]; day 5", "value": "For D1003, 5 mL chyme was found 2 hr after dosing on day 5."}, {"measurement": "Clinical Observation", "setting": "[4]; day 6", "value": "For D1005, 15 mL chyme, 30 mL liquid feces and ptyalism were found; also recorded: For D1005, 15 mL chyme was found 2 hr after dosing on day 6; also recorded: For D1001, ptyalism was found 30 min after dosing on day 6. 8 hr; also recorded: For D1001, ptyalism and soft feces were found 1 hr after dosing on day 6; also recorded: For D1002, ptyalism was found 30 min after dosing on day 6. 8 hr; also recorded: For D1002, 10mL liquid feces and ptyalism were found 1 hr after dosing; also recorded: For D1002, 20 mL chyme, 10 mL liquid feces and ptyalism were found; also recorded: For D1003, ptyalism was found 30 min after dosing on day 6. 8 hr; also recorded: For D1003, 30 mL liquid feces, ptyalism and tremor were found 2 hr; also recorded: For D1003, 10 mL chyme was found 3 hr after dosing on day 6; also recorded: For D1004, 10 mL liquid feces and ptyalism were found 1 hr after; also recorded: For D1004, 5 mL chyme was found 3 hr after dosing on day 6"}, {"measurement": "Clinical Observation", "setting": "[4]; day 7", "value": "For D1005, about 8 mL liquid feces was found 2 hr after dosing on day 7; also recorded: For D1001, ptyalism was found 1 hr after dosing on day 7. 4 hr recover; also recorded: For D1001, miosis was found 1 hr after dosing on day 7. 8 hr recover; also recorded: For D1001, about 5 mL liquid feces and about 3 mL yellow liquid; also recorded: For D1002, ptyalism was found 1 hr after dosing on day 7. 4 hr recover; also recorded: For D1003, ptyalism was found 1 hr after dosing on day 7. 4hr recover; also recorded: For D1003, about 10 mL liquid feces was found 2 hr after dosing on day 7; also recorded: For D1004, ptyalism was found 1 hr after dosing on day 7. 4 hr recover; also recorded: For D1004, about 3 mL yellow liquid vomitus was found 1 hr after"}]}]}
